Measurements: patent US20230257385A1, “SALT AND SOLID FORMS OF TABERNANTHALOG” (priority 2021, published 2023)
Where a name gives a salt, the structure may show the parent alone. Read-outs that look alike come from different tables or passages of the source.

What was measured:
[1] = cited from earlier work
[2] = Equilibrium humidity evaluation 75% RH/40° C., 10 days (Example 8, Experiment 6); format: physicochemical
Procedure: The experimental procedure that accompany this experiment is provided in Section G.ii.
All forms were maintained under constant equilibrium humidity (75% RH). XRPD, DSC, TGA, PLM and ^1H NMR analyses were performed on the absorbents at t=5 d and t=10 d, to confirm their physical fates and to determine the extent of residual solvent exchange or sequestration.
100 mg portions of Tabernanthalog salts ([…]) were placed in the relevant open vials. The powders were finely divided and distributed evenly over the base of the vial, such that equal material coverage across the panel was observed. These samples were then maintained 40° C. under 75% RH. The samples were sub-sampled at intervals of 5 and 10 days and analyzed by ^1H NMR, HPLC, XRPD, DSC, TGA and PLM, for evidence of phase change or chemical degradation.

[3] = Dynamic vapour sorption (DVS) of selected salts (Example 8); format: physicochemical
Procedure: DVS: The moisture sorption properties of the feed API were analyzed by DVS Intrinsic instrument (Surface Measurement System). Approximately 20-50 mg of API was weighed on an aluminum pan and loaded into the instrument equilibrated at 25° C. The sample was allowed to equilibrate under dry atmosphere (0% relative humidity) for 60 minutes before increasing the humidity from 0% to 30% at 5% step increment and from 30% to 90% at 10% step increment. A desorption cycle was also applied from 90% to 30% (10% step) and from 30% to 0% (5% decrement). A rate of change in mass per time unit (dm/dt) of 0.002%/min was set as the equilibrium parameter. Kinetic and isotherm graphs were calculated.

[4] = Stability examination of supplied monofumarate material at 40° C./75% RH (Example 5, Experiment Reference 2); format: physicochemical; settings: 75% RH at 40° C., open vial and double polyethene bagged, up to 5 w; XRPD, HPLC, TGA, DSC; fumarate
[5] = Thermocycling of the monofumarate salt (Experiment Reference 9); format: physicochemical; settings: for XRPD (moist pellet): form (pattern) of wet pellet after thermocycling; for XRPD crystallinity (oven dried): tabernanthalog monofumarate salt thermocycled between 20° C. and peak T (75% of solvent b.p.), solvent, input and number of cycles per sample reference
Procedure: The tabernanthalog monofumarate salt (Pattern #1, 75 mg, 1 wt) was weighed out in to 4 separate vials and the corresponding solvents (750 μl, 10 vol) from Table 89 were charged.
The suspensions underwent constant amplitude thermocycling at +0.5° C./min up to 75% of the relevant solvent b.p. and −0.5° C./min down to 20° C. The thermocycle was repeated 5 times for 9-A (Experiment Reference 9-Sample Reference A) to 9-D (Experiment Reference 9-Sample Reference D) prior to working up the samples, analyzed the by XRPD (wet and dry). 9-E (Experiment Reference 9-Sample Reference E) and 9-F (Experiment Reference 9-Sample Reference F) were subjected to 10 cycles and 9-G (Experiment Reference 9-Sample Reference G) to 35 cycles.
Thermocycling in different solvents can promote the formation of alternative polymorphic forms. The tabernanthalog monofumarate salt (Pattern #1), was heated and cooled between 20° C. and 75% of the relevant solvent b.p. at 0.5° C./minute, for 5 consecutive cycles; a 10-minute dwell was incorporated at each inflection. Thermocycling is ripening technique, that encourages particle size enlargement and promotes the evolution of the API into a stable phase. […] The products were analyzed both wet and dry to determine if form changes had occurred, all products were consistent with previously encountered patterns, and by DSC none of the products were single phase.

[6] = counter ion (acid), theoretical pKa value

O=C(O)[C@H](O)[C@@H](O)[C@H](O)[C@H](O)CO [D-Gluconic acid]
pKa1 [1, 6]: 3.8 | pKa1 ([1]; counter ion of the salt screen): 3.80

COc1ccc2c3c([nH]c2c1)CCN(C)CC3.O=C(O)C(O)C(O)C(=O)O [tabernanthalog tartrate salt]
change in chemical purity (trended HPLC) ([2]; 75% RH/40° C., after 10 days): largest decrease in chemical purity | water uptake / hydrate formation (TGA, DSC) ([2]; 75% RH/40° C., t=5 d and t=10 d): no significant water absorption | powder diffraction pattern versus input (form stability) ([2]; 75% RH/40° C., t=5 days and t=10 days): no significant changes to the powder diffraction pattern | Tabernanthalog RRT = 1.00 (trended HPLC data, chemical purity) ([2]; Tartrate salt, input before humidity exposure): 99.39 | DVS sorption/desorption isotherm ([3]; 0 to 90 to 0% RH, 25° C., dm/dt 0.002%/min): hygroscopic type of isotherm | DVS 0 to 90 to 0% RH (dm/dt <0.002%), mass change ([3]; desorption, 0.0% RH): 0.02% | DVS 0 to 90 to 0% RH (dm/dt <0.002%), mass change ([3]; desorption, 5.0% RH): 0.03% | DVS 0 to 90 to 0% RH (dm/dt <0.002%), mass change ([3]; desorption, 10.0% RH): 0.04% | DVS 0 to 90 to 0% RH (dm/dt <0.002%), mass change ([3]; desorption, 15.0% RH): 0.07% | DVS 0 to 90 to 0% RH (dm/dt <0.002%), mass change ([3]; desorption, 20.0% RH): 0.08% | DVS 0 to 90 to 0% RH (dm/dt <0.002%), mass change ([3]; desorption, 25.0% RH): 0.11% | DVS 0 to 90 to 0% RH (dm/dt <0.002%), mass change ([3]; desorption, 30.0% RH): 0.13% | DVS 0 to 90 to 0% RH (dm/dt <0.002%), mass change ([3]; desorption, 40.0% RH): 0.20% | DVS 0 to 90 to 0% RH (dm/dt <0.002%), mass change ([3]; desorption, 50.0% RH): 0.27% | DVS 0 to 90 to 0% RH (dm/dt <0.002%), mass change ([3]; desorption, 60.0% RH): 0.37% | DVS 0 to 90 to 0% RH (dm/dt <0.002%), mass change ([3]; desorption, 70.0% RH): 0.51% | DVS 0 to 90 to 0% RH (dm/dt <0.002%), mass change ([3]; desorption, 80.0% RH): 0.75% | DVS 0 to 90 to 0% RH (dm/dt <0.002%), mass change ([3]; desorption, 90.0% RH): 1.34% | DVS 0 to 90 to 0% RH (dm/dt <0.002%), mass change ([3]; sorption, 0.0% RH): 0.00% | DVS 0 to 90 to 0% RH (dm/dt <0.002%), mass change ([3]; sorption, 5.0% RH): 0.01% | DVS 0 to 90 to 0% RH (dm/dt <0.002%), mass change ([3]; sorption, 10.0% RH): 0.02% | DVS 0 to 90 to 0% RH (dm/dt <0.002%), mass change ([3]; sorption, 15.0% RH): 0.04% | DVS 0 to 90 to 0% RH (dm/dt <0.002%), mass change ([3]; sorption, 20.0% RH): 0.05% | DVS 0 to 90 to 0% RH (dm/dt <0.002%), mass change ([3]; sorption, 25.0% RH): 0.07% | DVS 0 to 90 to 0% RH (dm/dt <0.002%), mass change ([3]; sorption, 30.0% RH): 0.10% | DVS 0 to 90 to 0% RH (dm/dt <0.002%), mass change ([3]; sorption, 40.0% RH): 0.16% | DVS 0 to 90 to 0% RH (dm/dt <0.002%), mass change ([3]; sorption, 50.0% RH): 0.24% | DVS 0 to 90 to 0% RH (dm/dt <0.002%), mass change ([3]; sorption, 60.0% RH): 0.34% | DVS 0 to 90 to 0% RH (dm/dt <0.002%), mass change ([3]; sorption, 70.0% RH): 0.48% | DVS 0 to 90 to 0% RH (dm/dt <0.002%), mass change ([3]; sorption, 80.0% RH): 0.72% | DVS 0 to 90 to 0% RH (dm/dt <0.002%), mass change ([3]; sorption, 90.0% RH): 1.34%

COc1ccc2c3c([nH]c2c1)CCN(C)CC3 [supplied material (Pattern #1), 8-methoxy-3-methyl-1H,2H,3H,4H,5H,6H-azepino[4,5-b]indole fumarate]
physical and chemical stability [4]: no evidence for hydrate formation, chemical degradation or disproportionation

C/C=C/C=C/C(=O)O.COc1ccc2c3c([nH]c2c1)CCN(C)CC3 [Sample 6-D1]
Tabernanthalog RRT = 1.00 (trended HPLC data, chemical purity) ([2]; Sorbate salt, t = 5 d at 75% RH at 40° C.): 99.52

COc1ccc2c3c([nH]c2c1)CCN(C)CC3.O=C(O)/C=C/C(=O)O [Pattern 9-G]
XRPD (moist pellet) [5]: Pattern #2c | XRPD crystallinity (oven dried) [5]: 81.1%

CCS(=O)(=O)O [Ethanesulfonic acid]
pKa1 ([1]; counter ion of the salt screen): −2.10 | pKa2 ([1]; counter ion of the salt screen): −1.50

COc1ccc2c3c([nH]c2c1)CCN(C)CC3.O=C(O)/C=C/C(=O)O [Pattern 9-E]
XRPD (moist pellet) [5]: Pattern #2c | XRPD crystallinity (oven dried) [5]: 77.1%

C/C=C/C=C/C(=O)O.COc1ccc2c3c([nH]c2c1)CCN(C)CC3 [Sample 6-D2]
Tabernanthalog RRT = 1.00 (trended HPLC data, chemical purity) ([2]; Sorbate salt, t = 10 d at 75% RH at 40° C.): 99.70

COc1ccc2c3c([nH]c2c1)CCN(C)CC3.O=C(O)/C=C/C(=O)O [Sample 6-A2]
Tabernanthalog RRT = 1.00 (trended HPLC data, chemical purity) ([2]; Fumarate salt, t = 10 d at 75% RH at 40° C.): 98.71

O=C(O)[C@@H](O)[C@H](O)[C@H](O)[C@@H](O)C(=O)O [Galactaric acid]
pKa1 [1, 6]: 3.1 | pKa2 [1, 6]: 3.6

COc1ccc2c3c([nH]c2c1)CCN(C)CC3.O=C(O)c1ccccc1 [Sample 16-C2]
Tabernanthalog RRT = 1.00 (trended HPLC data, chemical purity) ([2]; Benzoate salt, t = 10 d at 75% RH at 40° C.): 98.17

COc1ccc2c3c([nH]c2c1)CCN(C)CC3.O=C(O)C(O)C(O)C(=O)O [Sample 6-B2]
Tabernanthalog RRT = 1.00 (trended HPLC data, chemical purity) ([2]; Tartrate salt, t = 10 d at 75% RH at 40° C.): 98.82

CCS(=O)(=O)O [Ethane sulfonic acid]
pKa1 [1, 6]: 2.05
